What was measured:
[1] = test system: Axl phosphorylation in transiently transfected HEK293T cells; experiment: Cellular Axl phosphorylation assay; format: cell-based; settings: Homo sapiens, HEK-293T; HEK293T cells transfected with Axl, 1 hour compound treatment, Phospho-Axl vs Total-Axl
Description: Cell AXL Inhibition Assay Principle
The assay is based on the measurement of the relative amounts of Total-Axl and Phosphorylated-Axl in whole cell lysates of transiently transfected HEK293T cells. This assay is based on application of the Mesoscale western blot and subsequent electro-chemiluminescence detection. Overexpression of Axl-RTK (Receptor tyrosine kinase) by transfection leads to an increase in Axl-trans-autophosphorylation events. Upon compound treatment, the correlation of the measured values of Phosphorylated-Axl and Total Axl indicate the potential of the tested compound to inhibit Axl-phosphorylation at the given compound concentration.
Cell AXL Inhibition Assay Protocol
HEK293T cells (2.5×10^4/well) were plated in a 96 well plate and cells were transfected with pcDNA_DEST_40 Axl or pcDNA_DEST_40 by Superfact reagent (Qiagen. Co. Ltd.). After overnight, the transfection reagent of each well was removed from cells and replaced by fresh prewarmed medium. On the following day, cells were treated with the respective test compound which was diluted by the same method, as in the Axl binding assay using DMSO, for 1 hour
After incubation with the test compounds, cells in the well of the plate were lysed using Tris lysis buffer. The lysate was transferred to two plates (total-Axl and phosphor-Axl) Mesoscale high bind plates and incubated for two hours at room temperature. Afterwards the lysates were removed from the plates and the plates were blocked using Blocking buffer. Subsequently Total-Axl antibody (H-124, Santa Cruz) was transferred to one Mesoscale high bind plate, and Phospho-Axl antibody (AF2228, R&D) to the other plate. After 1 h incubation, Sulpho-Tag antibody (goat anti-rabbit, Mesoscale) was added and again incubated for 1 hour. For the measurement, 2×MSD read buffer was added to each well and the plates were analyzed with a Mesoscale Sector Imager 2400. IC50 (half the maximal inhibitory concentration) was determined relative to between the vehicle (DMSO) control group and minimum control group as transfection of the control vector (pcDNA_DEST_40).
The results after this assay are shown in table 3 for selected compounds.

TYRO3 = biological target: T1, TYRO3 (Homo sapiens, UniProt Q06418); experiment: LanthaScreen Eu kinase binding assay, TYRO3; settings: Tracer 236
T1 construct: purchased Life Technologies
T1 sequence (Q06418 41-890): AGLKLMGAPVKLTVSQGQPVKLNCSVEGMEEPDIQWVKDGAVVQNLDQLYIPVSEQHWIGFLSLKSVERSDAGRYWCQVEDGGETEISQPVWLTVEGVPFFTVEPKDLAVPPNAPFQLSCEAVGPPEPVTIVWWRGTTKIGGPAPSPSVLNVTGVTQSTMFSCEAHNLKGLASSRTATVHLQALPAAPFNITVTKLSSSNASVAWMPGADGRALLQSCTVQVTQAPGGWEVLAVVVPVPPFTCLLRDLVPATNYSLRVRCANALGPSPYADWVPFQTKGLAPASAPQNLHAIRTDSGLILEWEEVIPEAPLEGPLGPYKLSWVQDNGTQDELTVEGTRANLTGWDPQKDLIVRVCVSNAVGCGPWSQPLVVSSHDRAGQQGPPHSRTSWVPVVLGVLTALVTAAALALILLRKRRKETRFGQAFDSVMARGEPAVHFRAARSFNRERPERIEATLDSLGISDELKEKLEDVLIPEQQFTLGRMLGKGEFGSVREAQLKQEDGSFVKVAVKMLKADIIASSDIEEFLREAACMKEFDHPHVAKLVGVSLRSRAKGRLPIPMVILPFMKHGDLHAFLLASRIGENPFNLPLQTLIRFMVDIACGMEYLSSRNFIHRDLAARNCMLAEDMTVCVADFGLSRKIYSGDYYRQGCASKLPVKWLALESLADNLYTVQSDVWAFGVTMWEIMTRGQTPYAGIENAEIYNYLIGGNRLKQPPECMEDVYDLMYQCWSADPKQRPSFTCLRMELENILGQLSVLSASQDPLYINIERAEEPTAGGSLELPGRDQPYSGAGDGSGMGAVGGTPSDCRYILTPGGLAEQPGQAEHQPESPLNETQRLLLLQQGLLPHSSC

HCC827/ER cells = experiment: WST-1 cell viability assay in erlotinib-resistant cells; settings: compound combined with Erlotinib at constant 1:1 ratio, 3 days, FBS 1%
Description: The killed cells were discarded and the remaining cells were cultured in a drug-free medium up to 80% confluence. Subsequently, cells were continuously exposed to increasing drug doses of up to 10 μM over a period of 8 months.
HCC827/ER cells were seeded in a 96-well plate with their respective media containing 10% FBS at 5000 cells/well. After seeding, the HCC827/ER cells were incubated for approximately 24 hours. […] The viability of the HCC827/ER cells was determined by adding WST-1 reagent according to Manufacturer's instructions (DoGenbio co., Ltd) and incubating for four hours. The plates were then read using an absorbance of 440 nm on Tecan Microplate reader (Infinite M200 pro, TECAN). The HCC827/ER cells' viability were calculated relative to vehicle (DMSO) control wells.

SMILES | Kd (TYRO3) [µM] | IC50 [1] [µM] | Combination effect of compound and erlotinib on inhibition activity in Erlotinib-resistant cell-line (HCC827/ER cells)
CCOc1cn(-c2c(C)ccnc2C)nc1C(=O)Nc1ccc(Oc2ccnc3cc(OC)c(OC)cc23)cn1 [Compound 132] | < 0.1 | < 0.1 | synergistic effect
CCOc1cn(-c2cncnc2C)nc1C(=O)Nc1ccc(Oc2ccnc3cc(OC)c(OC)cc23)cn1 [Compound 149] | < 0.1 | < 0.1 | synergistic effect
CCOc1cn(-c2cncnc2C2CC2)nc1C(=O)Nc1ccc(Oc2ccnc3cc(OC)c(OC)cc23)cn1 [Compound 167] | < 0.1 | < 0.1 | 
CCOc1cn(-c2nc[nH]n2)nc1C(=O)Nc1ccc(Oc2ccnc3cc(OC)c(OC)cc23)cn1 [Compound 168] | < 0.1 | < 0.1 | 
CCOc1cn(-c2cnccc2CO)nc1C(=O)Nc1ccc(Oc2ccnc3cc(OC)c(OC)cc23)cn1 [Compound 179] | < 0.1 | < 0.1 | 
CCOc1cn(-c2cnccc2CCO)nc1C(=O)Nc1ccc(Oc2ccnc3cc(OC)c(OC)cc23)cn1 [Compound 181] | < 0.1 | < 0.1 | 
CCOc1cn(-c2cnccc2C(C)=O)nc1C(=O)Nc1ccc(Oc2ccnc3cc(OC)c(OC)cc23)cn1 [Compound 182] | < 0.1 | < 0.1 | 
CCOc1cn(-c2cnccc2C(C)(C)O)nc1C(=O)Nc1ccc(Oc2ccnc3cc(OC)c(OC)cc23)cn1 [Compound 184] | < 0.1 | < 0.1 | 
COc1cc2nccc(Oc3ccc(NC(=O)c4nn(-c5cccnc5)cc4OCC(F)(F)F)nc3)c2cc1OC [Compound 185] | < 0.1 | < 0.1 | 
CCOc1cn(-c2c(C)ccnc2C)nc1C(=O)Nc1ccc(Oc2ccnc3cc(OC)c(OC)cc23)cc1F [Compound 191] | < 0.1 | < 0.1 | 
CCOc1cn(-c2ccc(OC(F)(F)F)cc2Cl)nc1C(=O)Nc1ccc(Oc2ccnc3cc(OC)c(OC)cc23)cc1F [Compound 192] | 0.1 to 1 | < 0.1 | 
CCOc1cn(-c2cnccc2Cl)nc1C(=O)Nc1ccc(Oc2ccnc3cc(OC)c(OC)cc23)cc1F [Compound 194] | < 0.1 | < 0.1 | 
CCOc1cn(-c2cnccc2C(C)(C)O)nc1C(=O)Nc1ccc(Oc2ccnc3cc(OC)c(OC)cc23)c(F)c1 [Compound 195] | < 0.1 | < 0.1 | 
CCOc1cn(-c2cnccc2C(F)(F)F)nc1C(=O)Nc1ccc(Oc2ccnc3cc(OC)c(OC)cc23)c(F)c1 [Compound 198] | < 0.1 | < 0.1 | 
CCOc1cn(-c2cccnc2)nc1C(=O)Nc1ccc(Oc2ccnc3cc(OC)c(OC(F)(F)F)cc23)cn1 [Compound 199] | ≥ 1 | < 0.1 | 
CCOc1cn(-c2nccnc2C(C)(C)O)nc1C(=O)Nc1ccc(Oc2ccnc3cc(OC)c(OC)cc23)cn1 [Compound 200] | < 0.1 | < 0.1 | 
COc1cc2nccc(Oc3ccc(NC(=O)c4nn(-c5ccc(F)cc5C)cc4OCC(F)(F)F)nc3)c2cc1OC [Compound 203] | < 0.1 | < 0.1 | 
CCOc1cn(-c2cnccc2C(C)(O)CO)nc1C(=O)Nc1ccc(Oc2ccnc3cc(OC)c(OC)cc23)cn1 (centres unmarked) [Compound 205] | < 0.1 | < 0.1 | 
CCOc1cn(-c2cccnc2)nc1C(=O)Nc1ccc(Oc2ccnc3cc(OC(C)CC)c(OC)cc23)cn1 (centres unmarked) [Compound 206] | ≥ 1 | < 0.1 | 
CCOc1cn(-c2cccnc2)nc1C(=O)Nc1ccc(Oc2ccnc3cc(OC(C)C)c(OC)cc23)cn1 [Compound 208] | 0.1 to 1 | < 0.1 | 
CCOc1cn(-c2cnccc2CO)nc1C(=O)Nc1ccc(Oc2ccnc3cc(OC)c(OC)cc23)cc1F [Compound 209] | < 0.1 | < 0.1 | 
CCOc1cn(C2CCCN(C)C2)nc1C(=O)Nc1ccc(Oc2ccnc3cc(OC)c(OC)cc23)cc1F (centres unmarked) [Compound 211] | 0.1 to 1 | < 0.1 | 

Continued, in another order:

Kd (TYRO3) [µM] | SMILES | IC50 [1] [µM] | Combination effect of compound and erlotinib on inhibition activity in Erlotinib-resistant cell-line (HCC827/ER cells)
≥ 1 | CCOc1cn(-c2cnc(Cl)cn2)nc1C(=O)Nc1ccc(Oc2ccnc3cc(OC)c(OC)cc23)cn1 [Compound 169] | < 0.1 | 
< 0.1 | CCOc1cn(-c2cnccc2C(F)(F)F)nc1C(=O)Nc1ccc(Oc2ccnc3cc(OC)c(OC)cc23)cn1 [Compound 170] | < 0.1 | 
< 0.1 | CCOc1cn(-c2nccnc2Cl)nc1C(=O)Nc1ccc(Oc2ccnc3cc(OC)c(OC)cc23)cn1 [Compound 177] | < 0.1 | 
< 0.1 | CCOc1cn(-c2cnccc2Cl)nc1C(=O)Nc1ccc(Oc2ccnc3cc(OC)c(OC)cc23)cn1 [Compound 183] | < 0.1 | 
0.1 to 1 | COc1cc2nccc(Oc3ccc(NC(=O)c4nn(-c5ccc(OC(F)(F)F)cc5Cl)cc4OCC(F)(F)F)nc3)c2cc1OC [Compound 186] | < 0.1 | 
< 0.1 | CCOc1cn(-c2c(C)ccnc2C)nc1C(=O)Nc1ccc(Oc2ccnc3cc(OC)c(OC)cc23)c(F)c1 [Compound 188] | < 0.1 | 
< 0.1 | CCOc1cn(-c2ccc(OC(F)(F)F)cc2Cl)nc1C(=O)Nc1ccc(Oc2ccnc3cc(OC)c(OC)cc23)c(F)c1 [Compound 189] | < 0.1 | 
< 0.1 | CCOc1cn(-c2nccnc2Cl)nc1C(=O)Nc1ccc(Oc2ccnc3cc(OC)c(OC)cc23)cc1F [Compound 190] | < 0.1 | 
< 0.1 | CCOc1cn(-c2cnccc2Cl)nc1C(=O)Nc1ccc(Oc2ccnc3cc(OC)c(OC)cc23)c(F)c1 [Compound 193] | < 0.1 | 
< 0.1 | CCOc1cn(-c2cnccc2C(F)(F)F)nc1C(=O)Nc1ccc(Oc2ccnc3cc(OC)c(OC)cc23)cc1F [Compound 196] | < 0.1 | 
< 0.1 | CCOc1cn(-c2cnccc2C(C)(C)O)nc1C(=O)Nc1ccc(Oc2ccnc3cc(OC)c(OC)cc23)cc1F [Compound 197] | < 0.1 | 
≥ 1 | CCOc1cn(-c2ccc(OC(F)(F)F)cc2Cl)nc1C(=O)Nc1ccc(Oc2ccnc3cc(OC)c(OC(F)(F)F)cc23)cn1 [Compound 201] | 0.1 to 1 | 
< 0.1 | CCOc1cn(-c2cnccc2CO)nc1C(=O)Nc1ccc(Oc2ccnc3cc(OC)c(OC)cc23)c(F)c1 [Compound 207] | < 0.1 | 
0.1 to 1 | CCOc1cn(-c2cnccc2C)nc1C(=O)Nc1ccc(Oc2ccnc3cc(OC)c(OC)cc23)nn1 [Compound 210] | < 0.1 | 

From patent US10934274B2, “Quinoline derivatives as TAM RTK inhibitors” (Qurient Co., Ltd., priority 2015, dated 2021)
